In US12649750B2, “Macrocyclic compounds, compositions, and methods of using thereof” (Sionna Therapeutics Inc., priority 2022, dated 2026):
Values belong to the molecule of their own block, whether it stands above or below them.

Experiments:
NBD1 = molecular target: T1, NBD1 (Homo sapiens, UniProt P13569); experiment: Aggregation analysis using differential static light scattering (DSLS), thermal stability of NBD1 (ΔTagg); format: binding; conditions: ΔTagg versus DMSO control, NBD1 0.2 mg/ml
T1 construct: Purified recombinant NBD1 was produced using previously described methods; made in house
Summary of the method: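 Stabilisation is measured as the shift in aggregation onset of recombinant NBD1 (0.2 mg/ml, 2 mM ATP, 5 mM MgCl2, pH7.6) exposed to compound. Images are taken every 0.5° C. while heating at 1° C. per minute, and the inflection-point Tagg is corrected by the DMSO mean.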

CFTR = molecular target: T2, CFTR (Homo sapiens, UniProt P13569, DEL508-508); experiment: TECC24 AUC fold over DMSO @10 μM, CFTR-mediated transepithelial chloride transport in CF-HBE cells; format: cell-based; conditions: test agent AUC divided by DMSO vehicle AUC, primary CF-HBE cells, ΔF508 homozygous donor, 48 hours incubation
T2 construct: Primary human bronchial epithelial cells from a ΔF508 homozygous CF donor; host or cells: primary human bronchial epithelial cells (CF-HBE), ΔF508 homozygous donor
Summary of the method: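 Value is ratio of test-agent to DMSO AUC of equivalent transepithelial Cl− current, integrated from forskolin (10 μM) stimulation to CFTR inhibitor-172 (20 μM) block, with benzamil 10 μM present. CF-HBE (ΔF508/ΔF508) cultures had 48 h compound exposure at 10 μM, 36.5° C before recording.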

T2 sequence (P13569 with tags, fused parts or gaps DEL508-508): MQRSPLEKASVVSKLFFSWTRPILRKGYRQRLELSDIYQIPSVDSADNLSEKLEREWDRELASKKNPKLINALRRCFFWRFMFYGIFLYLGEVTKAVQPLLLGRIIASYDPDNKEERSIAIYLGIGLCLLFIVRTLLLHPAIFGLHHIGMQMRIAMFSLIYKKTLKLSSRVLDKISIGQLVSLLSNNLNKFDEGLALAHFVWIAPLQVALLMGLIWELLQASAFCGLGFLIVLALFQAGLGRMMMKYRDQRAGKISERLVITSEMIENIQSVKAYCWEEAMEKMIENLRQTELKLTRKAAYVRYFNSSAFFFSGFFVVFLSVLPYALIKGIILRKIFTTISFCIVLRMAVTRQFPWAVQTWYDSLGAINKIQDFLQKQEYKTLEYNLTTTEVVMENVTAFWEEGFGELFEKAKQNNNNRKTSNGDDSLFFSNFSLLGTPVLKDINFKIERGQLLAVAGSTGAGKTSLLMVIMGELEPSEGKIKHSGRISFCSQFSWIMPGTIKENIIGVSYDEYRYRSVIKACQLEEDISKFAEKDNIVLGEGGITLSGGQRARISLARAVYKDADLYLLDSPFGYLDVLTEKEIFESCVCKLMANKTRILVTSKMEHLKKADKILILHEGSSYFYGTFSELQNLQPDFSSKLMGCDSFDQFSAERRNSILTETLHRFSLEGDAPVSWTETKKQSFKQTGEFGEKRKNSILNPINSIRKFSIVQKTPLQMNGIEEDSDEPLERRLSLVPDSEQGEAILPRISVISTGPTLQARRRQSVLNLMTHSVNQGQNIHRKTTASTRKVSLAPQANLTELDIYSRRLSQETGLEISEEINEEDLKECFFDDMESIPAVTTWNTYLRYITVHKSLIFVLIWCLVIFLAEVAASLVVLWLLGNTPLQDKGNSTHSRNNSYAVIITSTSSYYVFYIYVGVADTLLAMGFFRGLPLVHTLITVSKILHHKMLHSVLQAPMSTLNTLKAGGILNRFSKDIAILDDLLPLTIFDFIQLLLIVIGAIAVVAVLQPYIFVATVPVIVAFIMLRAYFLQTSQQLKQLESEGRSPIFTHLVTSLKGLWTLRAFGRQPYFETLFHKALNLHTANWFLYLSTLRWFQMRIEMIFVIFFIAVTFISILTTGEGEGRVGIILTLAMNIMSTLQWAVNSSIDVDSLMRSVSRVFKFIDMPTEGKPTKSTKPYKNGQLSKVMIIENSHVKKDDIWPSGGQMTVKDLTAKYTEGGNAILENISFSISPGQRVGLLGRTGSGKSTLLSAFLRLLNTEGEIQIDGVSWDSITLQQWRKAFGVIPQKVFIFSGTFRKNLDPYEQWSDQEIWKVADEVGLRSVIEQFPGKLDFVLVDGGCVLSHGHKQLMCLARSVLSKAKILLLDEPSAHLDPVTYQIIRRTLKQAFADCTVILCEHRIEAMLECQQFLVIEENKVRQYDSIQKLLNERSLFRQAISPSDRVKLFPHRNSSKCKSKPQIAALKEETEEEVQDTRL
T1 sequence (P13569 423-646 limits assumed): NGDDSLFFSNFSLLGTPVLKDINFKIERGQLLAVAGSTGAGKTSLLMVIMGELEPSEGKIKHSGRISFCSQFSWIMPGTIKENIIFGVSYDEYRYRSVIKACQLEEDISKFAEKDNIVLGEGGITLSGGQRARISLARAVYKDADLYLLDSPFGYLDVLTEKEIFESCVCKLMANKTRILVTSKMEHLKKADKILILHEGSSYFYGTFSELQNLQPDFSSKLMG

SMILES: COC(=O)[C@H](C)Cc1csc(C2(C)CCCC(C)(C)CS(=O)(=O)CCc3c(c(F)cc4[nH]ccc34)Oc3ccc(F)c(c3)-c3nc2nn3C)c1 (stereo partly drawn) [Compound 193, Methyl (2R)-3-[5-(22,28-difluoro-3,6,10,10-tetramethyl-12,12-dioxo-24-oxa-12λ6-thia-3,4,19,30-tetrazapentacyclo[23.3.1.12,5.015,23.016,20]triaconta-1(29),2(30),4,15,17,20,22,25,27-nonaen-6-yl)-3-thienyl]-2-methyl-propanoate]
DSLS 3D (100 μM ΔT) (NBD1): B (a value above 5 °C and less than or equal to 10 °C is marked “B”)
TECC (AUC, 10 μM) (CFTR): C (a value between 20 and 80 is marked “C”)

TECC (AUC, 10 μM) (CFTR): B (a value between 12-20 is marked “B”)
SMILES: C[C@H](Cc1cccc([C@@]2(C)CCCC(C)(C)CS(=O)(=O)CCc3c(c(F)cc4[nH]ccc34)Oc3ccc(F)c(c3)C3=NN=C2S3)c1)C(=O)O [Compound 194, (2R)-3-[3-[(6R)-22,28-difluoro-6,10,10-trimethyl-12,12-dioxo-24-oxa-12λ6,30-dithia-3,4,19-triazapentacyclo[23.3.1.12,5.015,23.016,20]triaconta-1(29),2,4,15,17,20,22,25,27-nonaen-6-yl]phenyl]-2-methyl-propanoic Acid]
DSLS 3D (100 μM ΔT) (NBD1): A (an ΔTagg value less than or equal to 5 °C is marked “A”)

SMILES: C[C@H](Cc1cccc([C@@]2(C)CCCC(C)(C)CS(=O)(=O)CCc3c(c(F)cc4[nH]ccc34)Oc3ccnc(c3)-c3nc2nn3C)c1)C(=O)O [Compound 197, (2R)-3-[3-[(6R)-22-Fluoro-3,6,10,10-tetramethyl-12,12-dioxo-24-oxa-12λ6-thia-3,4,19,28,30-pentazapentacyclo[23.3.1.12,5.015,23.016,20]triaconta-1(29),2(30),4,15,17,20,22,25,27-nonaen-6-yl]phenyl]-2-methyl-propanoic Acid]
DSLS 3D (100 μM ΔT) (NBD1): C (a value greater than 10 °C and less than or equal to 25 °C is marked “C”)
TECC (AUC, 10 μM) (CFTR): C (a value between 20 and 80 is marked “C”)

SMILES: C[C@H](Cc1ccc(C2(C)CCCC(C)(C)CS(=O)(=O)CCc3c(c(F)cc4[nH]ccc34)Oc3ccc(F)c(c3)-c3nc2nn3C)s1)C(=O)O (stereo partly drawn) [Compound 198, (2R)-3-[5-(22,28-difluoro-3,6,10,10-tetramethyl-12,12-dioxo-24-oxa-12λ6-thia-3,4,19,30-tetrazapentacyclo[23.3.1.12,5.015,23.016,20]triaconta-1(29),2(30),4,15,17,20,22,25,27-nonaen-6-yl)-2-thienyl]-2-methyl-propanoic Acid]
DSLS 3D (100 μM ΔT) (NBD1): C (a value greater than 10 °C and less than or equal to 25 °C is marked “C”)
TECC (AUC, 10 μM) (CFTR): C (a value between 20 and 80 is marked “C”)

SMILES: Cn1nc2nc1-c1cc(ccc1F)Oc1c(F)cc3[nH]ccc3c1CCS(=O)(=O)CC(C)(C)CCCC2(C)c1cccc(CC2CCN(O)C2=O)c1 (stereo not drawn) [Compound 199, 3-[[3-(22,28-Difluoro-3,6,10,10-tetramethyl-12,12-dioxo-24-oxa-12λ6-thia-3,4,19,30-tetrazapentacyclo[23.3.1.12,5.015,23.016,20]triaconta-1(29),2(30),4,15,17,20,22,25,27-nonaen-6-yl)phenyl]methyl]-1-hydroxy-pyrrolidin-2-one]
DSLS 3D (100 μM ΔT) (NBD1): C (a value greater than 10 °C and less than or equal to 25 °C is marked “C”)
TECC (AUC, 10 μM) (CFTR): C (a value between 20 and 80 is marked “C”)

SMILES: C[C@H](Cc1cccc([C@@]2(C)CCCC(C)(C)CS(=O)(=O)CCc3c(c(F)c(F)c4[nH]ccc34)Oc3ccc(F)c(c3)-c3nc2nn3C)c1)C(=O)O [Compound 200, (2R)-2-methyl-3-[3-[(6R)-21,22,28-trifluoro-3,6,10,10-tetramethyl-12,12-dioxo-24-oxa-12λ6-thia-3,4,19,30-tetrazapentacyclo[23.3.1.12,5.015,23.016,20]triaconta-1(29),2(30),4,15,17,20,22,25,27-nonaen-6-yl]phenyl]propanoic acid]
DSLS 3D (100 μM ΔT) (NBD1): C (a value greater than 10 °C and less than or equal to 25 °C is marked “C”)
TECC (AUC, 10 μM) (CFTR): C (a value between 20 and 80 is marked “C”)
